Experimental data published in article PMC6539868, “Syntheses and Biological Studies of Cu(II) Complexes Bearing Bis(pyrazol-1-yl)- and Bis(triazol-1-yl)-acetato Heteroscorpionate Ligands” (Molecules, 2019).
Read-outs that look alike come from different tables or passages of the source.

Tests used:
[1] = system: panel of human cancer cell lines derived from solid tumors; assay: MTT cytotoxicity, whole panel of human cancer cell lines; assay type: cell-based; conditions: mean over the cell lines of Table 2, 72 h
Method: (§1) The growth inhibitory effect towards 2D tumor cell lines was evaluated by means of MTT assay as previously described. IC50 values were calculated by four parameters logistic (4-PL) model. All the values are the means ± SD of not less than five measurements starting from three different cell cultures.
(§2) The in vitro antitumor activity of copper(II) complexes 1–3 and the uncoordinated ligands [HC(COOH)(pz^Me2)2], [HC(COOH)(pz)2] and [HC(COOH)(tz)2] was evaluated against a panel of human cancer cell lines derived from solid tumors. Adherent cell lines representative of cervical (A431), pancreatic (BxPC3) colon (HCT-15), breast (MCF-7), lung (A549), and ovarian (2008) cancers, differently sensitive to cisplatin, were exposed to the indicated compounds for 72 h.
(§3) HCT-15 colon cancer cells are notoriously poorly chemosensitive to cisplatin. […] As for cisplatin, the clinical effectiveness of OXP is seriously hampered by the cancer cell resistance and, at present, few other drug regimens are available for patients with OXP-refractory colorectal cancers. […] The RF values (calculated by dividing IC50 for resistant cells by those for sensitive ones) were about 10 times lower than that of OXP, excluding the occurrence of cross-resistance phenomena.

A431 = assay: MTT cytotoxicity assay, 2D monolayer; assay type: cell-based, human; conditions: 72 h, MTT test, cervical carcinoma; read-out: IC50 (µM) ± S.D. A431
Text: (§4) Human lung (A549), colon (HCT-15 and LoVo) and breast (MCF-7) carcinoma cell lines were obtained from American Type Culture Collection (ATCC, Rockville, MD, USA). Human pancreatic BxPC3 carcinoma cells were obtained from European Collection of Cell Culture (ECACC, Salisbury, UK). Human ovarian 2008 cancer cells were kindly provided by Prof. G. Marverti (Dept. of Biomedical Science of Modena University, Modena, Italy). Human squamous cervical A431 carcinoma cells were kindly provided by Prof. F. Zunino (Division of Experimental Oncology B, Istituto Nazionale dei Tumori, Milan, Italy). The LoVo-OXP cells were obtained as previously described. Cell lines were maintained in culture in the logarithmic phase at 37 °C in a 5% carbon dioxide atmosphere using the following media added of 10% fetal calf serum (Euroclone, Milan, Italy), antibiotics (50 units/mL penicillin and 50 μg/mL streptomycin), and 2 mM L-glutamine: (i) RPMI-1640 medium (Euroclone) for HCT-15, A431, MCF-7, BxPC3 and 2008 cells; (ii) F-12 HAM’S (Sigma Chemical Co.) for A549, LoVo and LoVo-OXP cells.
as §1, §2

MCF-7 = assay: MTT cytotoxicity assay, 2D monolayer; assay type: cell-based, human; conditions: 72 h, MTT test, breast carcinoma, read-out: IC50 (µM) ± S.D. MCF-7
Text: as §4, §1, §2

BxPC3 = assay: MTT cytotoxicity assay, 2D monolayer; assay type: cell-based, human; conditions: 72 h, MTT test, pancreatic carcinoma; read-out: IC50 (µM) ± S.D. BxPC3
Text: as §4, §1, §2

A549 = assay: MTT cytotoxicity assay, 2D monolayer; assay type: cell-based, human; conditions: 72 h, MTT test, lung carcinoma, read-out: IC50 (µM) ± S.D. A549
Text: as §4, §1, §2

2008 = assay: MTT cytotoxicity assay, 2D monolayer; assay type: cell-based, human; conditions: 72 h, MTT test, ovarian cancer, read-out: IC50 (µM) ± S.D. 2008
Text: as §4, §1, §2

HCT-15 = assay: MTT cytotoxicity assay, 2D monolayer; assay type: cell-based, human; conditions: 72 h, MTT test, colon carcinoma, read-out: IC50 (µM) ± S.D. HCT-15
Text: as §4, §1, §2

[2] = system: HCT-15 colon cancer cell spheroids; assay: Acid phosphatase (APH) assay in 3D spheroids; assay type: cell-based, human; conditions: 72 h, APH test, read-out: IC50 (µM) ± S.D. HCT-15 spheroids
Method: Spheroid cultures were obtained by seeding 2.5 × 10^3 HCT-15 cells/well in round bottom non-tissue culture treated 96 well-plate (Greiner Bio-one, Kremsmünster, Austria) in phenol red free RPMI-1640 medium (Sigma Chemical Co.), containing 10% FCS and supplemented with 20% methyl cellulose stock solution.
An APH modified assay was used for determining cell viability in 3D spheroids, as previously described. IC50 values were calculated with a four parameter logistic (4-PL) model. All the values are the means ± SD of not less than four independent experiments.
The in vitro antitumor efficacy of the newly developed compounds was also tested on 3D colon cancer cell culture models. Differently from 2D monolayer culture, 3D spheroid cell culture systems comprise cancer cells in various cell growth stages. Consequently, the multicellular cancer spheroid model is recognized to better reflect the tumor mass in vivo regarding drug permeation, cell interactions, gene expression, hypoxia and nutrient gradients with respect to monolayer cell cultures. Table 4 summarizes the IC50 values obtained after treatment of 3D cell spheroids of human HCT-15 colon cancer cells with copper(II) compounds as well as with cisplatin, as reference drug. In accordance with 2D chemosensitivity assays, complex 3 was scarcely effective, whereas complex 1 was as effective as cisplatin. […] We hypothesize that in this non-proliferative and very resistant tumor model the higher lipophilicity of 1, due to the presence of methyl substituents on the pyrazolyl rings, might be responsible for the enhanced compound penetration in the core area of spheroids.

LoVo-OXP = assay: MTT cytotoxicity assay, cross-resistance profile; assay type: cell-based, human; conditions: for IC50: 72 h, MTT test, oxaliplatin-resistant colon cancer cells, read-out: IC50 (µM) ± S.D. LoVo-OXP; for RF (resistance factor): RF = IC50 (resistant cells)/IC50 (wild-type cells)
Text: as §4, §1, §3

LoVo = assay: MTT cytotoxicity assay, cross-resistance profile; assay type: cell-based, human; conditions: 72 h, MTT test, oxaliplatin-sensitive colon cancer cells; read-out: IC50 (µM) ± S.D. LoVo
Text: as §4, §1, §3

Solubility = assay type: physicochemical
Stability to air = assay type: physicochemical; conditions: also as solutions
[3] = system: 26S proteasome, chymotrypsin-like (CT-L) activity; assay: Proteasome inhibition, chymotrypsin-like (CT-L) activity; assay type: biochemical; conditions: isolated 26S rabbit proteasomes, 15 μM, 60 min
Method: (§5) The purified rabbit 26S proteasome (Sigma Aldrich) was incubated for 60 min at 37 °C in assay buffer (50 mM Tris-HCl, pH 7.5, 250 mM sucrose, 5 mM MgCl2, 1 mM DTT, and 0.5 mM EDTA), in the presence of 15 µM of 1–3 or 10 µM Lactacystin. Afterwards, fluorogenic peptides were added and substrate hydrolysis was measured after 30 min by monitoring spectrofluorometrically the release of AMC (excitation at 370 nm, emission at 460 nm).
(§6) The ability of copper complexes to hamper the functioning of each individual proteasome active site, chymotrypsin-like (CT-L), trypsin-like (T-L), and caspase-like (C-L) activities was assessed in isolated 26S rabbit proteasomes after incubation with 15 μM of tested compounds. Lactacystin, an irreversible nonpeptidomimetic proteasome inhibitor, was used as a positive control. […] Conversely, no significant effects were recorded towards the T-L site. Even if the chymotrypsin-like sites are the major drug targets in cancer, it has been recently observed that co-targeting trypsin-like site increased cytotoxicity of copper complexes acting as proteasome inhibitors.

[4] = system: 26S proteasome, caspase-like (C-L) activity; assay: Proteasome inhibition, caspase-like (C-L) activity; assay type: biochemical; conditions: isolated 26S rabbit proteasomes, 15 μM, 60 min
Method: as §5, §6

LoVo cells = assay: Cellular uptake (intracellular copper by GF-AAS); assay type: cell-based, human; conditions: 24 h, 2 μM
Method: LoVo cells (2.5 × 10^6) were seeded in 75 cm^2 flasks in growth medium (20 mL). After overnight incubation, the medium was replaced, and the cells were treated with tested compounds for 24 h. Cell monolayers were then processed and mineralized as previously described. The sample was analyzed for copper by using a Varian AA Duo graphite furnace atomic absorption spectrometer (Varian, Palo Alto, CA, USA) at the wavelength of 324 nm. The calibration curve was obtained using known concentrations of standard solutions purchased from Sigma Chemical Co.
With the purpose of underling a possible correlation between cellular uptake efficiency and cytotoxicity, LoVo cells were treated for 24 h with equimolar concentrations (2 μM) of copper(II) complexes and the intracellular copper amount was quantified by means of Graphite Furnace Atomic Absorption Spectrometry (GF-AAS) analysis. […] In fact, the intracellular copper content detected in LoVo cells follows the same cytotoxicity trend 1 > 2 > 3.

Compound	IC50 (A431)	IC50 (MCF-7)	IC50 (BxPC3)	IC50 (A549)	IC50 2008	IC50 (HCT-15)	IC50 [2]	IC50 (LoVo-OXP)	RF (resistance factor) (LoVo-OXP; LoVo-OXP/LoVo)	IC50 (LoVo)	IC50 (MCF-7; Homo sapiens, MCF7)	IC50 (A549; Homo sapiens, A549)	IC50 (2008; Homo sapiens)	IC50 (HCT-15; Homo sapiens, HCT-15)	other results
N.N.[Cl][Pt][Cl] [Cisplatin, cisplatin, reference compound]	1.7 ± 0.5 µM	8.8 ± 1.4 µM	7.3 ± 1.2 µM	7.5 ± 1.2 µM	2.2 ± 1 µM	15.3 ± 2.2 µM	65.9 ± 3.85 µM	–	–	–	–	–	–	–	IC50 [1]: 7.1 µM
O=C1[O][Pt]2([NH][C@@H]3CCCC[C@H]3[NH]2)[O]C1=O [Oxaliplatin, oxaliplatin, reference compound]	–	–	–	–	–	–	–	15.2 ± 2.2 µM	10.9	1.4 ± 0.7 µM	–	–	–	–	–
O=C(O)C(n1cccn1)n1cccn1 [[HC(COOH)(pz)2], bis(pyrazol-1-yl)acetic acid, reference compound]	–	–	–	–	–	–	–	–	–	–	> 100 µM	> 100 µM	> 100 µM	> 100 µM	–
Cc1cc(C)n(C(C(=O)O)n2nc(C)cc2C)n1 [[HC(COOH)(pz^Me2)2], bis(3,5-dimethylpyrazol-1-yl)acetic acid, reference compound]	–	–	–	–	–	–	–	–	–	–	> 100 µM	> 100 µM	> 100 µM	> 100 µM	–
O=C(O)C(n1cncn1)n1cncn1 [[HC(COOH)(tz)2], bis(1,2,4-triazol-1-yl)acetic acid, reference compound]	–	–	–	–	–	–	–	–	–	–	> 100 µM	> 100 µM	> 100 µM	> 100 µM	–
O=C(O)C(n1cccn1)n1cccn1.O=C(O)C(n1cccn1)n1cccn1.[Cu+2].[O-][Cl+3]([O-])([O-])[O-].[O-][Cl+3]([O-])([O-])[O-] [compound 2, [HC(COOH)(pz)2]2Cu(ClO4)2]	12.7 ± 1.2 µM	10.2 ± 2.5 µM	7.5 ± 1.2 µM	5.5 ± 0.2 µM	7.9 ± 1.4 µM	9.3 ± 2.7 µM	107.8 ± 1 µM	4.9 ± 0.6 µM	1.2	4 ± 0.5 µM	–	–	–	–	solubility in methanol, DMSO and acetonitrile (Solubility; methanol, DMSO, acetonitrile): soluble; solubility in water (Solubility; water): soluble; IC50 [1]: 8.9 µM; air stability (Stability to air): air stable even as solutions; RF times lower than that of OXP (LoVo-OXP; LoVo-OXP/LoVo): about 10 times; effect on CT-L proteasome activity [3]: able to affect CT-L and C-L activities, even if to a lesser extent than lactacystin; effect on C-L proteasome activity [4]: able to affect CT-L and C-L activities, even if to a lesser extent than lactacystin
CO.O=C(O)C(n1cncn1)n1cncn1.O=C(O)C(n1cncn1)n1cncn1.[Cu+2].[O-][Cl+3]([O-])([O-])[O-].[O-][Cl+3]([O-])([O-])[O-] [compound 3, [HC(COOH)(tz)2]2Cu(ClO4)2·CH3OH]	15.9 ± 5.8 µM	39.6 ± 4.6 µM	18.5 ± 4.4 µM	24.5 ± 1.9 µM	69.3 ± 4.7 µM	59.5 ± 2.7 µM	> 100 µM	32.5 ± 1 µM	2.1	15.3 ± 1 µM	–	–	–	–	cellular uptake efficiency (intracellular copper amount) (LoVo cells): lowest cellular uptake efficiency; solubility in DMSO (Solubility; DMSO): soluble; air stability (Stability to air): air stable even as solutions; effect on CT-L proteasome activity [3]: able to affect CT-L and C-L activities, even if to a lesser extent than lactacystin; effect on C-L proteasome activity [4]: able to affect CT-L and C-L activities, even if to a lesser extent than lactacystin
